Measurements taken from ChEMBL document CHEMBL1201862, “PubChem BioAssay data set” (2004).
Calls of active or inactive are those of the source.

Assays:
[1] = target: T1, RNA-binding protein pos-1 (Caenorhabditis elegans, UniProt G5EF15); assay: disruptors of C. elegans POS-1 RNA interaction – biochemical, fluorescence polarization, dose response (AID 1964);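 note: purified POS-1 fused to maltose binding protein made in E. coli; potency of compounds blocking POS-1 binding to fluorescent RNA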
T1 sequence (G5EF15 whole entry): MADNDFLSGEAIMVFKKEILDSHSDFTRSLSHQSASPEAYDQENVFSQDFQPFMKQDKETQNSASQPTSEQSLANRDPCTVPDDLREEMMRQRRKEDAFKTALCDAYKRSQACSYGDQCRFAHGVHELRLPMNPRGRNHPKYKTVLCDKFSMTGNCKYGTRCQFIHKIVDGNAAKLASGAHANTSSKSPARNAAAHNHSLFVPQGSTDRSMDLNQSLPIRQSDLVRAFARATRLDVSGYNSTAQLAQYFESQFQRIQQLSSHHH

[2] = target: T2, Zinc finger protein mex-5 (Caenorhabditis elegans, UniProt Q9XUB2); assay: potency of MEX-5 RNA-binding blockers – biochemical, C. elegans, fluorescence polarization, dose response (AID 1960)
T2 sequence (Q9XUB2 whole entry): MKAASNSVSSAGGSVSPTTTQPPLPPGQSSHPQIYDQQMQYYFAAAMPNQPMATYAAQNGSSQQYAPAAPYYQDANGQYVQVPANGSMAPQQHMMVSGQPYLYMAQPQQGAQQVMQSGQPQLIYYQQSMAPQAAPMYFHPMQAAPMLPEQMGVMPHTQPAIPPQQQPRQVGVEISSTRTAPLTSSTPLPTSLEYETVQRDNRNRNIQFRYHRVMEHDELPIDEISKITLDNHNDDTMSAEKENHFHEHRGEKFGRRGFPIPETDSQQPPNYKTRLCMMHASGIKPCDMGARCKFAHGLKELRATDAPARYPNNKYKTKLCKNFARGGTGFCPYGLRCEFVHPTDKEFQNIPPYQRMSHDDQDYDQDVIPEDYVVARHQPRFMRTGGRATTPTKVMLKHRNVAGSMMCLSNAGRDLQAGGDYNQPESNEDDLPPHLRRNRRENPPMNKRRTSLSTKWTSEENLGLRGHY

Cytochrome P450 2C19 = Cytochrome P450 2C19 (Homo sapiens, UniProt P33261); assay: Cytochrome panel assay with activity outcomes. Panel member name: p450-cyp2c19 Compounds with AC50 equal or less than 10 uM are considered active; assay type: functional
cells [3] = assay type: functional
[4] = target: T3, Heat shock factor protein 1 (Mus musculus, UniProt P38532); assay: enhancement of HSF1-driven luciferase signal – cell-based, NIH3T3, luminescence, dose retest, confirmation (AID 435004); assay type: functional;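 note: stress induced by proteasome inhibitor MG132 added 30 min after compound; luciferase reporter driven by HSF1 response element in NIH3T3 cells; actives raise luminescence as potentiators of the MG132 stress response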
T3 sequence (P38532 whole entry): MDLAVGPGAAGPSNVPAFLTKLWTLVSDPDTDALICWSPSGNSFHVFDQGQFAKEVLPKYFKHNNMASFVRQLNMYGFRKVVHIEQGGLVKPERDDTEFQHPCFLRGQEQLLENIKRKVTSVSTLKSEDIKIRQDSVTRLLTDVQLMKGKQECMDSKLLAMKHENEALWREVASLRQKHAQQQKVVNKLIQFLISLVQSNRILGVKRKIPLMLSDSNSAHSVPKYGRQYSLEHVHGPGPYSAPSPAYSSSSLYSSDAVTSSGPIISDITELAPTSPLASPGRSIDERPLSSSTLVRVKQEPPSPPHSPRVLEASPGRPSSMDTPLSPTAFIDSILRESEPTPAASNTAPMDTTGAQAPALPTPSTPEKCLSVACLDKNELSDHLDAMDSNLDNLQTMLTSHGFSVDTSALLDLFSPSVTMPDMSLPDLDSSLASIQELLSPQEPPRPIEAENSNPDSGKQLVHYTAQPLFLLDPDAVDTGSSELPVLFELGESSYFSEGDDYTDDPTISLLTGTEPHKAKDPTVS

cells [5] = assay type: functional, cell-based
cells [6] = assay type: functional, cell-based; remark: listed apart in the source
P388/ADR = assay: cells; assay type: functional; details: Mus musculus
SN12K1 = assay: cells; assay type: functional; details: Homo sapiens
[7] = target: T4, Corticotropin-releasing factor receptor 2/Corticotropin-releasing factor-binding protein (Homo sapiens, UniProt P24387+Q13324); assay: activators of CRF receptor 2 with binding protein – uHTS hits, confirmation (AID 602473); assay type: functional; details: read-out: EC50_Mean
T4 sequence (Q13324 whole entry): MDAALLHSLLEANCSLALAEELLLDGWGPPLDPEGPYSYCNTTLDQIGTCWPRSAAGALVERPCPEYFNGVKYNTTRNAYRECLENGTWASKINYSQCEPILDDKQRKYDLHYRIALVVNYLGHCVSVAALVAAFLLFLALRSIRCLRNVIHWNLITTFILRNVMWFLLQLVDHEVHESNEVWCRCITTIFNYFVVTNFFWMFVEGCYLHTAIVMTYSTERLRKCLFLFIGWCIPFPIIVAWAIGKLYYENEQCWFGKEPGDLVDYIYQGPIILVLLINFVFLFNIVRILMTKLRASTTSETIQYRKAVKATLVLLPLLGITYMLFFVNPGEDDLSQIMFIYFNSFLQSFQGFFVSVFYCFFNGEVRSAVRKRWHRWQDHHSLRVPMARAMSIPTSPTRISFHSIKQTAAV
T4 sequence (P24387 whole entry): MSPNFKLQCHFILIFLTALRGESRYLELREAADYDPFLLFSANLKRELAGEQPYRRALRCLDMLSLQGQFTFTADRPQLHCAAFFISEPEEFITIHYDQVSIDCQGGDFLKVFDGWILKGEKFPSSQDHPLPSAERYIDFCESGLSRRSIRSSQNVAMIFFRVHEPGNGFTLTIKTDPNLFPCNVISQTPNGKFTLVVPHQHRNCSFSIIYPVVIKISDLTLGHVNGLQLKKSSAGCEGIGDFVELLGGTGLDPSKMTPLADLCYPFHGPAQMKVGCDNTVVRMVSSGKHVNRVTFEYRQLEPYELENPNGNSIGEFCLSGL

Streptococcus = assay: GAS UMAA2166 growth inhibition – luminescence, BacTiterGlo, counter-screen for streptokinase expression inhibitor project, dose response (AID 1915); assay type: functional, organism-based;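 note: potency for reduction of bacterial viability or growth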
[8] = tested on: Streptococcus sp. 'group A'; assay: Streptococcus pyogenes SK(-)GAS viability under kanamycin – luminescence, BacTiterGlo, confirmation, counter-screen for streptokinase expression inhibitor project, dose response (AID 1900); assay type: functional, organism-based
[9] = Luminescence Cell-Based Dose Response HTS to Identify Inhibitors of 5'UTR Stem-Loop Driven Prion Protein mRNA Translation in H4 Neuroglioblastoma Cells. [Related pubchem assays: 1827 (Project Summary), 1813 (Primary HTS)]; assay type: functional
[10] = luciferase reporter signal suppression in cells – H4 neuroglioma cells, luminescence, dose response (AID 1990); assay type: functional, cell-based
[11] = alpha-synuclein stem-loop luciferase translation blockers – H4 neuroglioma cells, luminescence, confirmation (AID 1988); assay type: functional, cell-based
INS1 = assay: INS-1E survival protection against cytokine death – cell-based, luminescence, retest, dose response (AID 449756); assay type: functional; details: Rattus norvegicus;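 note: cell death triggered by IL-1 beta plus TNF-alpha plus IFN-gamma mixture; protective hits raise ATP signal compared with cytokine alone wells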
[12] = Luminescence Cell-Based Dose Response HTS to Identify Activators of Luciferase Translation or Activity in H4 […] Cells. [Related pubchem assays: 1829 (Project Summary), 1814 (Primary HTS)]; assay type: functional
H4 = assay: Luminescence Cell-Based Dose Response HTS to Identify Activators of 5'UTR Stem-Loop Driven Prion Protein mRNA Translation in H4 Neuroglioblastoma Cells. [Related pubchem assays: 1829 (Project Summary), 1814 (Primary HTS)]; assay type: functional; details: Homo sapiens
[13] = Luminescence Cell-Based Dose Retest to Confirm Inhibitors of Cancer Stem Cells. [Related pubchem assays (depositor defined):AID2717, AID2721]; assay type: functional; details: Homo sapiens
[14] = Trypanosoma cruzi growth suppression in host cells – NIH3T3 host cells, beta-gal luminescence, confirmation (AID 2044); assay type: functional, cell-based;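 note: intracellular parasites grown in NIH/3T3 mouse fibroblasts as host cells; luminescent beta-galactosidase reporter signal from transgenic T. cruzi replicating inside host cells; inhibitors lower the luminescence signal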
[15] = NIH3T3 cell viability loss – ATP luminescence, mouse fibroblasts, counter-screen, dose response (AID 2010); assay type: functional, cell-based;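 note: cells exposed to compound for about 90 hours before reading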

Sequence of Cytochrome P450 2C19 (P33261 whole entry): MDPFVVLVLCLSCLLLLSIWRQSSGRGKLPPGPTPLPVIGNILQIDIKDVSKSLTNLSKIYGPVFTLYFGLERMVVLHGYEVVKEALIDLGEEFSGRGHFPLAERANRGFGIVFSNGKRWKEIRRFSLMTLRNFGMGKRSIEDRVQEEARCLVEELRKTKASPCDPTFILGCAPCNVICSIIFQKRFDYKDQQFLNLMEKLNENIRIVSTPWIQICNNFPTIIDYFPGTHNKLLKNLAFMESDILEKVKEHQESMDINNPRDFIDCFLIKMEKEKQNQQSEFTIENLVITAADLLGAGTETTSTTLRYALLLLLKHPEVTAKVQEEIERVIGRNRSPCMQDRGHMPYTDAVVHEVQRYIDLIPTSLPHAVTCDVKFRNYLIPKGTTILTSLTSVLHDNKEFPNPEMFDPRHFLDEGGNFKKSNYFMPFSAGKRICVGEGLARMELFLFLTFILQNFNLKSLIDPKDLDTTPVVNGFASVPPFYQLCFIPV

## O=C1NC(=O)N(c2cccc(Cl)c2)C(=O)/C1=C\Nc1ccccn1
[1]
  EC50: > 300 µM (not active)
[2]
  EC50: > 300 µM (not active)

## c1ccc2[nH]c(NC3=NCCC3)nc2c1
Cytochrome P450 2C19
  AC50: inconclusive
Cells [3]
  IC50: 12.2 µM (active)

## C/C(=N\OC(=O)c1ccc(F)cc1)c1ccc(F)c(F)c1
[4]
  EC50: > 260 µM (inactive)

## COc1ccc(CC(=O)NN=C(S)NCC2CC2)cc1OC
Cells [5]
  EC50: > 350 µM (not active)
Cells [6]
  EC50: > 350 µM (not active)

## CC[C@@]1(O)C[C@H](OC2CC(N(C)C)C(OC3CC(O)C(OC4CCC(=O)C(C)O4)C(C)O3)C(C)O2)c2c(cc3c(c2O)C(=O)c2c(O)cccc2C3=O)[C@H]1C(=O)OC (some centres not stated)
P388/ADR
  GI50: 0.0333 µM (active)
SN12K1
  GI50: 0.0236 µM (active)

## Cc1ccc(/C=N/NC(=O)c2ccc(Br)o2)s1
Cells [5]
  EC50: > 350 µM (not active)
Cells [6]
  EC50: 37.1 µM (active)

## Cc1ccc(/C=N/N(Cc2ccccc2)c2ccccc2)o1
[4]
  EC50: > 260 µM (inactive)

## O=C(CNS(=O)(=O)c1ccc([N+](=O)[O-])cc1)N/N=C\c1ccc(O)cc1
[7]
  EC50: 7.12 µM (active)

## CN1C(=O)/C(=C/c2ccccc2F)Sc2ccc(C(=O)N3CCCC3)cc21
Streptococcus
  EC50: 2.66 µM (active)
[8]
  EC50: 1.06 µM (active)

## COc1ccc(C2C(C#N)=C(N)Oc3cc(O)ccc32)cc1C (configuration not stated)
[7]
  EC50: > 53 µM (inactive)

## Cc1ccc(C(=O)Nc2nccs2)cc1
Cells [3]
  IC50: 41.4 µM (active)

## CCc1ccc(NC(=O)COc2ccc3c(c2)OCO3)cc1
Cells [3]
  IC50: > 50 µM (active)

## CCOc1ccccc1N1CCN(C(=S)NC(=O)C23CC4CC(CC(C4)C2)C3)CC1
[9]
  EC50: 24.5 µM (active)
[10]
  EC50: > 120 µM (not active)
Cells [5]
  EC50: > 350 µM (not active)
Cells [6]
  EC50: > 350 µM (not active)
[11]
  EC50: 17.3 µM (active)

## COC(=O)CCCC1=CC2=CC(=O)C(C)(OC(=O)c3ccco3)C(=O)C2=CO1 (configuration not stated)
[1]
  EC50: 274 µM (inconclusive)
[2]
  EC50: 22.3 µM (active)

## COCCn1c(N)c(N(Cc2ccccc2)C(=O)c2ccc(C#N)cc2)c(=O)[nH]c1=O
[4]
  EC50: > 260 µM (inactive)

## CN(C)c1ccc(C=NN2C(=O)CSC2=S)c(Cl)c1
[7]
  EC50: > 53 µM (inactive)

## CCN1C(=O)/C(=C\c2cccs2)C(C(=O)OC)=C1C
[1]
  EC50: > 300 µM (not active)
[2]
  EC50: > 300 µM (not active)

## C=CCN1C(c2cccc(C(F)(F)F)c2)=CS/C1=C(\C#N)c1nnc(N2CCOCC2)n1-c1ccccc1
[7]
  EC50: > 53 µM (inactive)

## CCc1cccc(C)c1NC(=S)N1CCCCC1c1cccnc1 (configuration not stated)
[7]
  EC50: 6.05 µM (active)

## CC(=O)Nc1nc(C)c(-c2csc(Nc3ccccn3)n2)s1
Cells [5]
  EC50: > 350 µM (not active)
Cells [6]
  EC50: 5.87 µM (active)

## N#C/C(=C/c1cccn1-c1cccc(C(=O)O)c1)c1ccc(Cl)cc1
[1]
  EC50: > 300 µM (not active)
[2]
  EC50: > 300 µM (not active)

## Cc1ccc(C(c2nnnn2C2CCCC2)N2CCc3ccccc32)cc1 (configuration not stated)
[4]
  EC50: > 260 µM (inactive)

## CC(NC(=O)c1cc2c(s1)CS(=O)(=O)C2)c1ccccc1 (configuration not stated)
Cells [5]
  EC50: > 350 µM (not active)
Cells [6]
  EC50: > 350 µM (not active)

## COC(=O)CCCC(=O)N1CCCC(C(=O)c2ccc(-c3ccccc3)cc2)C1 (configuration not stated)
Cells [3]
  IC50: > 50 µM (active)

## S=C(NCc1ccco1)N1CCN(c2ccccc2Cl)CC1
[4]
  EC50: > 260 µM (inactive)

## O=C(COC(=O)c1ccc(Cl)s1)c1ccc[nH]1
Cells [3]
  IC50: 5.77 µM (active)

## CCCN(Cc1nnc(-c2ccccc2Cl)o1)C(=O)c1cc([N+](=O)[O-])cc([N+](=O)[O-])c1
Cells [3]
  IC50: 5.87 µM (active)

## Cc1cc(=O)oc2cc(OCC(=O)N3CCN(c4ccc(F)cc4)CC3)ccc12
Cells [5]
  EC50: > 350 µM (not active)
Cells [6]
  EC50: > 350 µM (not active)

## COc1ccccc1N(CC(=O)N/N=C/c1c(O)ccc2ccccc12)S(C)(=O)=O
[9]
  EC50: 22.8 µM (active)
[10]
  EC50: 13.5 µM (active)
Cells [5]
  EC50: 9.19 µM (active)
INS1
  AC50: 2.15 µM (active)
[11]
  EC50: 8.56 µM (active)

## O=C(c1ccccc1)c1cc2cc(Cl)ccc2[nH]1
[12]
  EC50: 94.6 µM (active)
H4
  EC50: 13.9 µM (active)

## Cc1nc2nc3c(cn2n1)C(=O)CC(c1ccccc1)C3 (configuration not stated)
Cells [5]
  EC50: > 350 µM (not active)

## Cc1cc(/C=C2\C(=O)NC(=O)N(c3ccc(Br)cc3)C2=O)c(C)n1-c1cc(C(=O)O)cc(C(=O)O)c1
[1]
  EC50: > 300 µM (not active)
[2]
  EC50: > 300 µM (not active)

## CNC(=O)c1c(NC(=O)c2ccc(S(=O)(=O)N3CCCc4ccccc43)cc2)sc2c1CCN(C)C2
[13]
  AC50: 0.206 µM (active)
[7]
  EC50: 6.81 µM (active)
[1]
  EC50: > 300 µM (not active)
[2]
  EC50: > 300 µM (not active)

## CS(=O)(=O)c1cccc(C(=O)N(CCc2ccccc2)Cc2cccs2)c1
Cells [5]
  EC50: > 350 µM (not active)
Cells [6]
  EC50: > 350 µM (not active)

## Cc1ccc(CNC(=O)/C(C#N)=C\c2ccc(N(C)C)cc2)cc1
[1]
  EC50: 43.5 µM (active)
[2]
  EC50: > 300 µM (not active)

## C/C(Cn1nnc([N+](=O)[O-])n1)=N\NC(=O)c1ccncc1
[14]
  EC50: 0.214 µM (active)
Cells [3]
  IC50: 0.3 µM (active)
[15]
  EC50: > 30 µM (not active)

## Cc1ccc(-c2ccc(O)nn2)cc1
[4]
  EC50: > 260 µM (inactive)

## O=S1(=O)N=C(NCC(c2ccco2)N2CCCCC2)c2ccccc21 (configuration not stated)
[4]
  EC50: > 260 µM (inactive)
